Source: patent publication US20070166547A1, “Use of a layer consisting of hydrophobic linear, or two-dimensional polycyclic aromatics as a barrier layer or an encapsulation and electric components constructed with a layer of this type and comprising organic polymers” (priority 2003, published 2007)

Experiments:
[1] = system: metabolism of nitrogen oxide; assay: Morphine abstinence model: nitrites and nitrates NOX− in blood plasma, liver and brain; type: in vivo, rats Wistar; conditions: for Nitrites in blood plasma, Control + Compound / Nitrites in brain, Cortex of cerebrum, Control + Compound / Nitrites in brain, Hypothalamus, Control + Compound / Nitrites in brain, Mesencephalon, Control + Compound / Nitrites in liver, Control + Compound: compound alone 20.0 mg/kg intramuscularly; for Nitrites in blood plasma, Control + Morphine + compound / Nitrites in brain, Cortex of cerebrum, Control + Morphine + compound / Nitrites in brain, Hypothalamus, Control + Morphine + compound / Nitrites in brain, Mesencephalon, Control + Morphine + compound / Nitrites in liver, Control + Morphine + compound: morphinized rats then compound 20.0 mg/kg intramuscularly
Method: The experiments were carried out on rats in series of 7 animals on each compound according to the invention. Non-morphinized animal with not administered with compounds according to the invention were used as a control group. […] Then the rats were decapitated, the blood from somnolent arteries was collected in test tubes with solution EDTA as an anticoagulant, centrifuged at 1500 g for 15 minutes at 4° C.
To estimate the intensity of metabolism of nitrogen oxide in rats, quantitative determination of stable metabolites of nitrogen oxide—nitrites and nitrates NOX^− in the blood plasma, supernatanates of the liver and thymus gland, a study was conducted by a spectrometric method, and in the brain supernatanates by a […] method.
The spectrometric method is based the reaction of nitrites with the Griss reagent (a mixture of 2% solution of sulfanilamide and 0.2% N-(1-naphthyl)ethylene diamine. At the first step the nitrite reacts with sulfanilamide with formation of diazonium salt, and then with the second component to form azo dye with an adsorption maximum at 540 nm. For reduction of nitrates into nitrites, a fermentative method was used with bacterial reductase nitrate (Grisham M. B. et al., 1995). The samples of plasma and supernatant of the liver deproteinizated at 100° C. for 5 minutes incubated for 30 minutes at 37° C. in 50.0 mM of HEPES pH 7.4 in the presence of 0.2 unit/ml of Aspergillus reductase nitrate, 5.0 mkM of FAD and 0.1 mM of NAD-Ph. At the end of the reaction lactate dehydrogenase and pyruvate were added for isolation of NAD-Ph interfering with the Griss reaction. Then the Griss reagent was added and after 10-minute incubation the light absorption of the samples was measured at 540 nm. To amount of NOX^− was calculated using sodium nitrate as a standard.
The fluorometric method is based on calculation of the nitrite level by the intensity fluorescence of 2,3-diaminonaphthotriazole, a product of reaction of 2,3-diaminonaphthalene (DAN) and nitrite in an acidic medium (Misko T. R., Schilling R. J., Salvemini D. et al. “A fluorometric assay for the measurement of nitrite of biological samples”. Anal. Biochem., 1993, v. 214, p. 11-16). The brain supernatants deproteinizated at 100° C. were placed in a nitrite regenerating system containing 0.125 unit/ml of nitrate reductases, 25 mkM NADPh and 25 mkM FAD prepared in a 20-mM Tris-HCl buffer with pH 7.6 and incubated for 30 minutes at 37° C. The lactatedehydrogenase/pyruvate system was used for oxidation of the NADPh. Then 316 mkM of the DAN solution in 0.62 M of hydrochloric acids were added and the mixture was incubated for 10 minutes in darkness.
280 mM of NaOH were added for stabilization of the fluorescence of the formed 2,3-diaminonaphthotriazole. The fluorescence intensity was measured in the spectrofluorimeter Hitachi F-3000 at a wavelength of excitation of 365 nm and an emission of 405 nm. The concentration of NOX^− in the brain was calculated by means of a standard solution of sodium nitrate.

[2] = system: plasma hemostasis; assay: Prothrombin time after intravenous administration; type: in vivo, rabbit; conditions: for effect on the prothrombin time index (overall): doses of 15.0, 30.0, 60.0 mg/kg
Method: (§1) The investigations were performed on 72 rabbits of the “Chinchilla” breed with a mass of 2.5±0.3 kg, who were administered which solutions of compounds 2, 15, 21, 37 in doses of 15, 30 and 60 mg/kg intravenously. The experiments included the thrombin-test (series No. 7300) and the coagulability-test (series No. 5000) purchased from the scientific-and-production association (SPA) “Renam”, thromboplastin (series No. 240600) and calcium chloride purchased from the SPA “MedioLab”
(§2) The static parameters of the blood and plasma coagulation (partial activated thromboplastin time, thrombin time, maximum coagulation activity (test for auto coagulation) were determined using the Behnk Electronic coagulometer (Germany). The operating principle of this instrument is based on the fact that the formed blood clot breaks the contacts of the pulse counter in the flask-pin circuit, said pin permanently oscillating in a vertical plane. The moment of formation of the clot is registered by stopping the stop watch hand.
(§3) The measurements were effected at a constant temperature of 37° C. maintained by a temperature control unit.
The method of its determination is based on estimation of the coagulation of citrate or oxalic blood plasma, when it is mixed with thromboplastin and a calcium chloride solution. Since under these conditions the time of formation of the clot depends on the content of II, VII, IX and X factors in the investigated plasma sample, now the test is called “thromboplastin time by Quick” or “activity thromboplastin complex”.
Compounds 2, 15, 21, 37 according to the invention at a concentration of 15, 30 and 60 mg/kg were administered to the above experimental animals intravenously and their blood was taken off after 15, 30, 60 and 120 minutes after the administration.
Citrate blood containing 1 part of citrate per 9 parts of native blood was centrifuged at 3000 rev/min for 10 minutes to obtain plasma deprived of thrombocytes.
Added into a test tube in a water bath were 0.1 ml of plasma and 0.1 ml of a thromboplastin solution. After 60 seconds, 0.1 ml of 0.277% solution of calcium chloride was added and the time of reaction T1 in seconds was registered.

[3] = system: plasma hemostasis; assay: Autocoagulation test (coagulating activity A) after intravenous administration; type: in vivo, rabbit; conditions: for effect on the coagulation activity, autocoagulation test (overall): doses 15.0, 30.0, 60.0 mg/kg
Method: as §1, §2, §3
Compounds 2, 15, 21, 37 according to the invention at a concentration of 15, 30 and 60 mg/kg were intravenously administered to the above experimental animals and their blood samples were taken off 15, 30, 60 and 120 minutes after the administration.
Added to 0.2 ml of plasma obtained by centrifuging citrate blood at 1500 rev/min within 10 minutes was a glycosilate-calcium mixture (2.0 ml 0.222% CaCl2+0.1 ml of investigated citrate blood) 4, 6, 8, 10 minutes after the preparation of this mixture and the time of coagulation in the sample was determined.
The obtained results in seconds were translated in factors of coagulating activity A in percent, which specify the state of both the coagulating and anticoagulating parts of the blood coagulating system.

Row | Structure (SMILES) | T, s After 120 minutes (prothrombin time) ([2]; dose 15.0 mg/kg intravenously) [s] | T, s after 15 minutes (prothrombin time) ([2]; dose 15.0 mg/kg intravenously) [s] | T, s after 30 minutes (prothrombin time) ([2]; dose 15.0 mg/kg intravenously) [s] | T, s after 60 minutes (prothrombin time) ([2]; dose 15.0 mg/kg intravenously) [s] | T, s After 120 minutes (prothrombin time) ([2]; dose 30.0 mg/kg intravenously) [s] | T, s after 15 minutes (prothrombin time) ([2]; dose 30.0 mg/kg intravenously) [s] | T, s after 30 minutes (prothrombin time) ([2]; dose 30.0 mg/kg intravenously) [s] | T, s after 60 minutes (prothrombin time) ([2]; dose 30.0 mg/kg intravenously) [s] | T, s After 120 minutes (prothrombin time) ([2]; dose 60.0 mg/kg intravenously) [s] | T, s after 15 minutes (prothrombin time) ([2]; dose 60.0 mg/kg intravenously) [s] | T, s after 30 minutes (prothrombin time) ([2]; dose 60.0 mg/kg intravenously) [s] | T, s after 60 minutes (prothrombin time) ([2]; dose 60.0 mg/kg intravenously) [s] | effect on the prothrombin time index (overall) [2] | A, % after 15 minutes (coagulating activity) ([3]; dose 15.0 mg/kg intravenously) [%] | A, % after 30 minutes (coagulating activity) ([3]; dose 15.0 mg/kg intravenously) [%] | A, % after 60 minutes (coagulating activity) ([3]; dose 15.0 mg/kg intravenously) [%] | A, % after 120 minutes (coagulating activity) ([3]; dose 15.0 mg/kg intravenously) [%] | A, % after 15 minutes (coagulating activity) ([3]; dose 30.0 mg/kg intravenously) [%] | A, % after 30 minutes (coagulating activity) ([3]; dose 30.0 mg/kg intravenously) [%] | A, % after 60 minutes (coagulating activity) ([3]; dose 30.0 mg/kg intravenously) [%] | further results
1 | Nc1cccc2c(=O)[nH][nH]c(=O)c12.[Na] [Compound 15, sodium salt of 5-amino-benzo[d]-3H-pyridazine-1,4-dione] | 11.5 ± 0.2 | 11.5 ± 0.2 | 11.7 ± 0.2 | 11.2 ± 0.2 | 11.3 ± 0.2 | 11.0 ± 0.2 | 11.2 ± 0.2 | 11.4 ± 0.2 | 12.0 ± 0.1 | 12.0 ± 0.1 | 12.0 ± 0.1 | 12.0 ± 0.2 | have no effect on the prothrombin time index | 82.3 | 103.0 | 89.0 | 101.2 | 100.3 | 68.4 | 106.6 | Nitrites in blood plasma, Control + Compound [1]: 14.39 ± 0.84 mkmol/ml; Nitrites in brain, Cortex of cerebrum, Control + Compound [1]: 4.31 ± 0.37 nmol/mg of protein; Nitrites in brain, Hypothalamus, Control + Compound [1]: 6.77 ± 0.83 nmol/mg of protein; Nitrites in brain, Mesencephalon, Control + Compound [1]: 6.65 ± 0.70 nmol/mg of protein; Nitrites in liver, Control + Compound [1]: 0.259 ± 0.019 nmol/mg of protein; Nitrites in blood plasma, Control + Morphine + compound [1]: 13.91 ± 1.91 mkmol/ml; Nitrites in brain, Cortex of cerebrum, Control + Morphine + compound [1]: 4.72 ± 0.37 nmol/mg of protein; Nitrites in brain, Hypothalamus, Control + Morphine + compound [1]: 6.57 ± 0.88 nmol/mg of protein; Nitrites in brain, Mesencephalon, Control + Morphine + compound [1]: 5.50 ± 0.43 nmol/mg of protein; Nitrites in liver, Control + Morphine + compound [1]: 0.285 ± 0.02 nmol/mg of protein; A, % after 120 minutes (coagulating activity) ([3]; dose 30.0 mg/kg intravenously): 70.6%; A, % after 15 minutes (coagulating activity) ([3]; dose 60.0 mg/kg intravenously): 74.4%; A, % after 30 minutes (coagulating activity) ([3]; dose 60.0 mg/kg intravenously): 63.2%; A, % after 60 minutes (coagulating activity) ([3]; dose 60.0 mg/kg intravenously): 64.4%; A, % after 120 minutes (coagulating activity) ([3]; dose 60.0 mg/kg intravenously): 66.5%; effect on the coagulation activity, autocoagulation test (overall) [3]: have no effect on the coagulation activity
2 | O=c1[nH][nH]c(=O)c2nccnc12.[Li] [Compound 25, lithium salt of pyrazine[2,3-d]-6H-pyridazine-5,8-dione] | – | – | – | – | – | – | – | – | – | – | – | – | – | – | – | – | – | – | – | – | Nitrites in blood plasma, Control + Compound [1]: 17.10 ± 2.05 mkmol/ml; Nitrites in brain, Cortex of cerebrum, Control + Compound [1]: 4.47 ± 0.43 nmol/mg of protein; Nitrites in brain, Hypothalamus, Control + Compound [1]: 6.87 ± 0.80 nmol/mg of protein; Nitrites in brain, Mesencephalon, Control + Compound [1]: 6.98 ± 1.02 nmol/mg of protein; Nitrites in liver, Control + Compound [1]: 0.307 ± 0.012 nmol/mg of protein; Nitrites in blood plasma, Control + Morphine + compound [1]: 16.78 ± 2.11 mkmol/ml; Nitrites in brain, Cortex of cerebrum, Control + Morphine + compound [1]: 4.91 ± 0.32 nmol/mg of protein; Nitrites in brain, Hypothalamus, Control + Morphine + compound [1]: 6.67 ± 0.79 nmol/mg of protein; Nitrites in brain, Mesencephalon, Control + Morphine + compound [1]: 5.91 ± 0.74 nmol/mg of protein; Nitrites in liver, Control + Morphine + compound [1]: 0.287 ± 0.01 nmol/mg of protein
3 | Nc1cnc2c(=O)n([C@@H]3O[C@H](CO)[C@@H](O)[C@H]3O)[nH]c(=O)c2n1.[Na] [Compound 21, sodium salt of 3-amino-7-(β-D-ribofuranosile)pyrazine[2,3-d]-6H-pyridazine-5,8-dione] | 11.5 ± 0.2 | 11.4 ± 0.2 | 11.5 ± 0.1 | 11.3 ± 0.1 | 11.2 ± 0.2 | 11.2 ± 0.1 | 11.2 ± 0.1 | 11.3 ± 0.2 | 12.0 ± 0.2 | 12.0 ± 0.2 | 11.8 ± 0.1 | 12.1 ± 0.1 | have no effect on the prothrombin time index | 81.4 | 101.3 | 86.5 | 97.4 | 97.2 | 69.1 | 103.7 | A, % after 120 minutes (coagulating activity) ([3]; dose 30.0 mg/kg intravenously): 71.0%; A, % after 15 minutes (coagulating activity) ([3]; dose 60.0 mg/kg intravenously): 71.9%; A, % after 30 minutes (coagulating activity) ([3]; dose 60.0 mg/kg intravenously): 62.1%; A, % after 60 minutes (coagulating activity) ([3]; dose 60.0 mg/kg intravenously): 63.7%; A, % after 120 minutes (coagulating activity) ([3]; dose 60.0 mg/kg intravenously): 66.2%; effect on the coagulation activity, autocoagulation test (overall) [3]: have no effect on the coagulation activity
4 | Nc1ccnc2c(=O)n([C@@H]3O[C@H](CO)[C@@H](O)[C@H]3O)[nH]c(=O)c12 [Compound 2, 4-amino-7-(β-D-ribofuranosile)pyrido[2,3-d]-6H-pyridazine-5,8-dione] | 11.7 ± 0.1 | 11.7 ± 0.2 | 11.5 ± 0.2 | 11.4 ± 0.2 | 11.2 ± 0.2 | 11.1 ± 0.2 | 11.0 ± 0.1 | 11.3 ± 0.1 | 11.9 ± 0.1 | 12.0 ± 0.1 | 11.9 ± 0.2 | 12.1 ± 0.2 | have no effect on the prothrombin time index | 80.2 | 100.0 | 87.4 | 98.0 | 98.4 | 71.2 | 104.2 | A, % after 120 minutes (coagulating activity) ([3]; dose 30.0 mg/kg intravenously): 70.9%; A, % after 15 minutes (coagulating activity) ([3]; dose 60.0 mg/kg intravenously): 72.3%; A, % after 30 minutes (coagulating activity) ([3]; dose 60.0 mg/kg intravenously): 60.8%; A, % after 60 minutes (coagulating activity) ([3]; dose 60.0 mg/kg intravenously): 62.5%; A, % after 120 minutes (coagulating activity) ([3]; dose 60.0 mg/kg intravenously): 65.7%; effect on the coagulation activity, autocoagulation test (overall) [3]: have no effect on the coagulation activity
